Laboratory results from patent publication US9512130B2, “Substituted imidazopyridazines” (BAYER PHARMA AKTIENGESELLSCHAFT, priority 2013, dated 2016).

Assays:
HeLa cells = assay: Proliferation Assay with HeLa cells; format: cell-based; conditions: Homo sapiens, 96 h, 4 days incubation, crystal violet staining
Procedure: After 24 hours, the cells of one plate (zero-point plate) were stained with crystal violet (see below), while the medium of the other plates was replaced by fresh culture medium (200 μl), to which the test substances were added in various concentrations (0 μM, as well as in the range of 0.01-30 μM; the final concentration of the solvent dimethyl sulfoxide was 0.5%). The cells were incubated for 4 days in the presence of test substances. […] After three washing cycles of the fixed cells with water, the plates were dried at room temperature. The cells were stained by adding 100 μl/measuring point of a 0.1% crystal violet solution (pH 3.0). After three washing cycles of the stained cells with water, the plates were dried at room temperature. The dye was dissolved by adding 100 μl/measuring point of a 10% acetic acid solution. The extinction was determined by photometry at a wavelength of 595 nm. The change of cell number, in percent, was calculated by normalization of the measured values to the extinction values of the zero-point plate (=0%) and the extinction of the untreated (0 μm) cells (=100%). The IC50 values were determined by means of a 4 parameter fit using the company's own software.

[1] = In vitro metabolic stability in rat hepatocytes; format: in vitro ADME; conditions: maximal oral bioavailability calculated from half-life in Han Wistar rat hepatocytes, 1 μM test compound
Procedure: Investigation of In Vitro Metabolic Stability in Rat Hepatocytes (Including Calculation of Hepatic In Vivo Blood Clearance (CL)) Hepatocytes from Han Wistar rats were isolated via a 2-step perfusion method. After perfusion, the liver was carefully removed from the rat: the liver capsule was opened and the hepatocytes were gently shaken out into a Petri dish with ice-cold WME. The resulting cell suspension was filtered through sterile gaze in 50 ml falcon tubes and centrifuged at 50×g for 3 min at room temperature. The cell pellet was resuspended in 30 ml WME and centrifuged through a Percoll® gradient for 2 times at 100×g. The hepatocytes were washed again with Williams' medium E (WME) and resuspended in medium containing 5% FCS. Cell viability was determined by trypan blue exclusion. For the metabolic stability assay liver cells were distributed in WME containing 5% FCS to glass vials at a density of 1.0×10^6 vital cells/mL. […] During incubation, the hepatocyte suspensions were continuously shaken and aliquots were taken at 2, 8, 16, 30, 45 and 90 min, to which equal volumes of cold methanol were immediately added. Samples were frozen at −20° C. over night, after subsequently centrifuged for 15 minutes at 3000 rpm and the supernatant was analyzed with an Agilent 1200 HPLC-system with LCMS/MS detection. The half-life of a test compound was determined from the concentration-time plot. From the half-life the intrinsic clearances were calculated. Together with the additional parameters liver blood flow, amount of liver cells in vivo and in vitro. The hepatic in vivo blood clearance (CL) and the maximal oral bioavailability (Fmax) was calculated. The following parameter values were used: Liver blood flow—4.2 L/h/kg rat; specific liver weight—32 g/kg rat body weight; liver cells in vivo—1.1×10^8 cells/g liver, liver cells in vitro—0.5×10^6/ml.

human CYP3A4 [2] = molecular target: T1, human CYP3A4 (Homo sapiens (Human), UniProt P08684); assay: Determination of mechanism-based inhibition of human CYP3A4; format: in vitro ADME; conditions: irreversible CYP3A4 inactivation; inactivator molecules metabolized per CYP3A4 molecule inactivated; testosterone substrate
Procedure: Determination of Mechanism-Based Inhibition of Human CYP3A4
The test compound was incubated at 37° C. in a concentration-NADPH-, and time-dependent setting. Therefore, the test compound was incubated at 4 different concentrations (e.g.: 1, 2, 5, 10 μM) in the presence of NADPH ([…]) and regenerating system in phosphate-buffered saline ([…], pH 7.4) The highest concentration of test compound was incubated without NADPH and therefore served as the NADPH-deficient control. In addition, acetonitrile as a vehicle control (negative control) and mibefradil as positive control for irreversible CYP3A4 inactivation were also included using identical assay conditions.
Each mixture was incubated with the enzyme (preincubation) for up to 50 minutes.
Afterwards, the reaction in the main incubation was stopped by the addition of acetonitrile (containing an internal standard), the protein was allowed to precipitate by placing the mixture into an ice bath. Subsequently, the mixture was centrifuged to pelletize the protein and the supernatants were analyzed by HPLC-MS for the isoform specific metabolite e.g. […] and the remaining amount of the test compound.
In parallel the turnover of the substrate was plotted against the preincubation time.

human CYP3A4 [3] = molecular target: T1, human CYP3A4; assay: Determination of inhibitory potential on human CYP3A4; format: in vitro ADME; conditions: human liver microsomes, midazolam as probe substrate
Procedure: Determination of Inhibitory Potential on Human CYP3A4
The potential of the test compound to act as a competitive inhibitor of CYP3A4 was evaluated in in vitro assays, using human liver microsomes and the reference substrate midazolam. The test compound was solved in acetonitrile. Human liver microsomal preparation (pool of HLM) was applied for the assay. A stock solution of the test compound was added to phosphate buffer containing EDTA, NADP, glucose 6-phosphate, and glucose 6-phosphate dehydrogenase. This mixture was sequentially diluted on a Genesis Workstation (Tecan, Crailsheim, FRG). After pre-warming, reaction was initiated by addition of a mixture of probe substrate (midazolam). […] The reference samples (substrate, but no inhibitor) were incubated in parallel in sextuple and contained the same amount of solvent as the test incubations. Reactions were stopped by addition of 100 μL acetonitrile containing the internal standard. Precipitated proteins were removed by centrifugation of the well plate, supernatants were analyzed by LC-MS/MS.
The CYP3A4-mediated metabolic activity in the presence of the test compounds was expressed as percentages of the corresponding reference value. A sigmoid-shaped curve was fitted to the data to calculate the enzyme inhibition parameter IC50 using a nonlinear least-squares regression analysis of the plot of percent control activity versus concentration of the test inhibitor.

[4] = system: spindle assembly checkpoint (Mps-1) in HeLa cells; assay: cells; format: cell-based; conditions: Homo sapiens; HeLa cells arrested with nocodazole, 4 h with test compound, phospho-histone H3 (Ser10) readout; read-out: SAC
Text: Spindle Assembly Checkpoint Assay
The spindle assembly checkpoint assures the proper segregation of chromosomes during mitosis. Upon entry into mitosis, chromosomes begin to condensate which is accompanied by the phosphorylation of histone H3 on serine 10. Dephosphorylation of histone H3 on serine 10 begins in anaphase and ends at early telophase. Accordingly, phosphorylation of histone H3 on serine 10 can be utilized as a marker of cells in mitosis. Nocodazole is a microtubule destabilizing substance. Thus, nocodazole interferes with microtubule dynamics and mobilises the spindle assembly checkpoint. […] An inhibition of the spindle assembly checkpoint by Mps-1 inhibitors overrides the mitotic blockage in the presence of nocodazole, and the cells complete mitosis prematurely. This alteration is detected by the decrease of cells with phosphorylation of histone H3 on serine 10. This decline is used as a marker to determine the capability of compounds of the present invention to induce a mitotic breakthrough.
Cultivated cells of the human cervical tumour cell line HeLa (ATCC CCL-2) were plated at a density of 2500 cells/well in a 384-well microtiter plate in 20 μl Dulbeco's Medium (w/o phenol red, w/o sodium pyruvate, w 1000 mg/ml glucose, w pyridoxine) supplemented with 1% (v/v) glutamine, 1% (v/v) penicillin, 1% (v/v) streptomycin and 10% (v/v) fetal calf serum. After incubation overnight at 37° C., 10 μl/well nocodazole at a final concentration of 0.1 μg/ml were added to cells. After 24 h incubation, cells were arrested at G2/M phase of the cell cycle progression. […] Images were acquired with a Perkin Elmer OPERA™ High-Content Analysis reader. Images were analyzed with image analysis software MetaXpress™ from Molecular devices utilizing the Cell Cycle application module. […] The raw assay data were further analysed by four parameter logistic regression analysis to determine the IC50 value for each tested compound.

T1 sequence (P08684 whole entry): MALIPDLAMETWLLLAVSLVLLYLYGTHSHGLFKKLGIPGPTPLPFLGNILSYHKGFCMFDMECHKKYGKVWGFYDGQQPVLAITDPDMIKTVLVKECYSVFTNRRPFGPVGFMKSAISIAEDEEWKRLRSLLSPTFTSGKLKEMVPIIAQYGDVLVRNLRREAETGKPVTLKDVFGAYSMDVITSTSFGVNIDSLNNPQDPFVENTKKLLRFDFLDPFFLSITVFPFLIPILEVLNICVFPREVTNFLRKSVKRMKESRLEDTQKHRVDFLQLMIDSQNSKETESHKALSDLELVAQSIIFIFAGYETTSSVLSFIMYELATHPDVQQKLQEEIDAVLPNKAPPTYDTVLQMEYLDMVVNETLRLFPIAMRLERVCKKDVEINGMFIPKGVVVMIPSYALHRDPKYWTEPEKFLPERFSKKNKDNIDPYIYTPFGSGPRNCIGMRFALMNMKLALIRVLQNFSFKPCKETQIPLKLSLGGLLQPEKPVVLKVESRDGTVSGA

SMILES	IC50 (HeLa cells) [nM]	Fmax rat hep [1] [%]	CYP3A4 partition ratio (human CYP3A4 [2])	IC50 (human CYP3A4 [3]) [nM]	IC50 [4] [nM]
COc1ccc(Oc2cc(NCCC(F)(F)F)c3ncc(-c4ccc(C(=O)NC5CC5)c(C)c4)n3n2)c(F)c1F [Example 2, N-cyclopropyl-4-{6-(2,3-difluoro-4-methoxyphenoxy)-8-[(3,3,3-trifluoropropyl)amino]imidazo[1,2-b]pyridazin-3-yl}-2-methylbenzamide]	7.8	72			
COc1ccc(Oc2cc(NCC3CCOCC3)c3ncc(-c4ccc(C(=O)NC5CC5)c(C)c4)n3n2)c(F)c1F [Example 3, N-cyclopropyl-4-{6-(2,3-difluoro-4-methoxyphenoxy)-8-[(tetrahydro-2H-pyran-4-ylmethyl)amino]imidazo[1,2-b]pyridazin-3-yl}-2-methylbenzamide]	18.1	39	33	> 10000	0.08
Cc1cc(-c2cnc3c(NCCC(F)(F)F)cc(Oc4cccc(F)c4)nn23)ccc1C(=O)NC1CC1 [Ref., N-cyclopropyl-4-{6-(3-fluorophenoxy)-8-[(3,3,3-trifluoropropyl)amino]imidazo[1,2-b]pyridazin-3-yl}-2-methylbenzamide, reference compound]	23	38	3	> 10000	0.52
COc1ccc(Oc2cc(NCC3COC3)c3ncc(-c4ccc(C(=O)NC5CC5)c(C)c4)n3n2)cc1F [Example 1, N-cyclopropyl-4-{6-(3-fluoro-4-methoxyphenoxy)-8-[(oxetan-3-ylmethyl)amino]imidazo[1,2-b]pyridazin-3-yl}-2-methylbenzamide]	2.9	44	105	> 5000	0.97
